According to patent US4937230A, “Method of healing wounds in horses” (ProCyte Corporation, priority 1987, dated 1990):

Tests used:
[1] = test system: barbed-wire cuts/gashes; assay: Barbed-wire cuts/gashes, topical treatment of horses E, F and G; type: in vivo, horse
Description: (1) History: The skin of the hoof area of horse E was badly torn from barbed-wire.
Treatment: A cream base containing 0.4% GHL:CU and 6% DMSO was applied to the area 2 times/day.
(2) History: A 33-year-old horse (horse F) received a serious barbed wire wound to the lower leg directly into the cleft of the hoof. The wound area was ripped open, thereby dividing the hoof.
Treatment: A cream base with 0.4% GHL-CU and 6% DMSO was applied 1-2 times/day.
(3) History: A very deep barbed-wire induced gash on the upper rear leg of horse G was originally treated with antibiotics and closed with stitches.
Treatment: A cream containing 0.4% GHL-CU and 6% DMSO was applied for 2 weeks (1-2 times/day).

[2] = test system: puncture wound; assay: Puncture wound, topical treatment of horse D; type: in vivo; conditions: upper leg, cream base 0.4% GHL-CU and 3% DMSO, twice/day
Experimental: History: A puncture wound of unknown origin occurred to the upper leg of horse D. No traditional therapy (antibiotics) was used prior to treatment.
Treatment: A cream base containing 0.4% GHL-CU and 3% DMSO was applied to the wound site shortly after the wound was discovered. […] The treatment was performed twice/day.

[3] = test system: denuded area after injury (poor regrowth of hair); assay: Denuded area after injury, topical treatment of horses B and C; type: in vivo, horse; conditions: cream base 0.4% GHL-CU and 6% DMSO
Experimental: (1) History: Approximately 2 months following wounding (lower leg, cause unspecified) healing occurred in horse B with poor regrowth of hair. The affected area measured approximately 2 square inches
Treatment: A cream base containing 0.4% GHL-CU and 6% DMSO was applied to the denuded area 3-4 times/week. Substantial hair growth was noted after treatment for approximately 2-3 weeks.
(2) History: An ulcerative sore on the back of Horse C below the saddle horn area (withers) was treated by a veterinarian using antibiotics and an antibacterial spray. […] Hair was absent from the partially healed sore.
Treatment: A cream base consisting of 0.4% GHL-CU and 6% DMSO was applied 1-2 times/day. Within 3 weeks, the infected ulcerative area resolved and hair was noted to be covering the wound.

[4] = test system: infected fly bites (raised nodules in the saddle region); assay: Saddle sores from fly bites, topical treatment of horse A; type: in vivo; conditions: cream base 0.4% GHL-CU and 6% DMSO, topical twice/daily
Description: History: Horse A suffered from fly bites which became infected and developed into irritating raised nodules located on the back in the saddle region over a period of 8 weeks.
Treatment: A cream base containing 0.4% GHL-CU and 6% DMSO was applied twice/daily to the nodules. Within 4-5 days, softening of the nodules occurred along with diminishment of irritation and inflammation. Total healing occurred within 10-14 days.

[5] = test system: ulcerating pressure-induced injury; assay: Ulcerating pressure-induced injury, topical treatment of horse J; type: in vivo
Description: History: A 12-year-old thoroughbred (horse J) developed a large ulcer (2 inch diameter) on top of the withers (back beneath saddle horn area) A veterinarian treated the wound with antibiotics and an antibacterial spray. […] The wound continued to be large and inflamed after 3-4 months
Treatment: A cream containing 0.4% GHL:Cu with 6% DMSO was applied 1-2 times/day. The old scab fell off after a few days and was replaced by a new scab. After 2 weeks, the infection cleared up and ulceration began to be replaced by a skin covering. […] Approximately 1 month after beginning treatment, the ulcerative injury had resolved totally.

[6] = test system: granulation tissue ("proud flesh"); assay: Excessive accumulation of granulation tissue (proud flesh), topical treatment of horse K; type: in vivo; conditions: cream base 0.4% GHL:CU and 3% DMSO for one month
Description: History: An accumulation of unsightly granulation tissue or granuloma (known as "proud flesh") was present over a poorly healed wound (sight unspecified) in horse K. Typically, proud flesh often accompanies an insufficiently healing wound, appearing bubbly, swollen and nodular.

[7] = test system: rope burn; assay: Rope burn, topical treatment of horse H; type: in vivo; conditions: rear ankle, cream base 0.4% GHL-CU and 6% DMSO, 2 times/day
Description: The rope burn had removed all hair and skin. A veterinarian treated the burn with antibiotics and a nitrofurosone ointment. The scab was removed daily with washing. The injury responded, although quite slowly.
Treatment: A cream base with 0.4% GHL-CU and 6% DMSO was applied to the burn 2 times/day. The scab was left on the area during the treatment period.

[8] = test system: full-thickness skin loss wound; assay: Full-thickness skin loss, topical treatment of horse I; type: in vivo
Description: History: Horse I suffered from a traumatic injury to the anterior mid-calf aspect of the rear leg, caused by striking a fence while jumping. A flap of skin initially remained over the approximately 2.5 inch diameter wound. The leg was bandaged for a brief time, and the dead skin flap removed within 10 days post-injury. The leg appeared swollen and inflamed.
Inflammation and swelling had also diminished.

[9] = horse F, cream base 0.4% GHL-CU and 6% DMSO, 1-2 times/day

In the case of `NC(=O)N/N=C/c1ccc([N+](=O)[O-])o1` [nitrofurosone, reference compound], the “effect of prior treatment on the dehisced wound” value ([1]; horse G, 0.2% antibacterial agent) is reported as “ineffective”.

For “Glycyl-L-Histidy-L-Lysine: Copper(II) [GHL:Cu]”, the “healing of the wound” value [2] was “healed within a few days”, the “infection of the wound” value [2] was “did not become infected” and the “treatment time after which substantial hair growth was noted” value ([3]; horse B, lower leg, about 2 square inches, 3-4 times/week) was 2-3 weeks. For the same compound, the “time to resolution of infected ulcerative area with hair covering the wound” value ([3]; horse C, ulcerative sore on the back, 1-2 times/day) was ≤ 3 weeks, the “time to softening of the nodules with diminishment of irritation and inflammation” value [4] was 4 to 5 days and the “time to total healing” value [4] was 10 to 14 days. For the same compound, the “time until infection cleared up and ulceration began to be replaced by skin covering” value ([5]; 2 inch diameter ulcer on withers, cream 0.4% GHL:Cu with 6% DMSO, 1-2 times/day) was 2 weeks, the “time until ulcerative injury had resolved totally” value ([5]; cream 0.4% GHL:Cu with 6% DMSO, 1-2 times/day) was “Approximately 1 month” and the “hair growth over the area” value ([5]; shortly after 2 weeks) was “hair began growing over the area”. For the same compound, the “swelling and appearance of proud flesh” value [6] was “notable reduction in swelling and improved appearance”, the hair regrowth [7] was “hair grew back over the area” and the “healing of the wound” value ([7]; scab left on) was “healed up within a week”. The “time until the wound scabbed over” value ([1]; horse E, hoof area, cream base 0.4% GHL:CU and 6% DMSO, 2 times/day) was 5 days, the “examination of the wound 3 weeks after treatment” value ([1]; horse E, hoof area, treatment halted after 5 days) was “no evidence of infection” and the “new scab formation with reduction in wound size” value ([1]; horse F, lower leg/hoof cleft, cream base 0.4% GHL-CU and 6% DMSO, 1-2 times/day) was “within a few days”. The “time to almost total healing” value [1, 9] was ≤ 4 weeks, the “wound course over 2 weeks of treatment” value [1, 9] was “continuation of wound reduction and scab covering” and the “scab formation over open, raw tissue” value ([1]; horse G, dehisced gash upper rear leg, 6 inches x 1 inch, cream 0.4% GHL-CU and 6% DMSO, 1-2 times/day for 2 weeks) was “A scab formed quickly”. The wound closure ([1]; horse G, cream 0.4% GHL-CU and 6% DMSO, 1-2 times/day for 2 weeks) was “Within weeks, the wound had begun to close and appeared healthy” and the “granulation of the gash” value ([1]; horse G, noted when scab was removed during cleaning) was “granulated considerably”.

For “Glycyl-L-Histidyl-L-Lysine octyl ester:Copper (II) [GHL-octyl ester Cu]”, the “wound size under continued treatment” value ([8]; 1 time/day over the following week) was “continued to decrease in size”, the “reduction of wound size” value ([8]; about 2.5 inch diameter wound, cream base 0.4% GHL-octyl ester Cu and 6% DMSO, 2 times/day for 2 weeks) was ~50% and the inflammation and swelling ([8]; after 2 weeks, 2 times/day) was “diminished”. The scab formation ([8]; after 2 weeks, 2 times/day) was “a scab had formed over the area”.
